The source of these data is PMC10557146 (2023).

For the experiment, the system named is htel, d[AG3(TTAG3)3]; htel(K) (hybrid in K+); htel(Na) (antiparallel in Na+) (DNA, G4) AGGGTTAGGGTTAGGGTTAGGG
Nature of the experiment: visible absorption titration, 380 nm, Bard fit. The settings on record: pH 7, 298 K, per G-tetrad.

As for `N#Cc1cc2nc3c4cccnc4c4ncccc4c3nc2cc1C#N.[Ru+2].c1cnc2c(c1)ccc1cccnc12.c1cnc2c(c1)ccc1cccnc12`, the Kb reads like this: (K+ (100 mM KCl), 50 mM phosphate, hybrid htel(K), site size 1.8, 7.2 μM complex) 1.1(±0.6) × 10^7 M^-1; (K+ (100 mM KCl), phosphate buffer, hybrid htel(K), site size 1.5) 4.2(±0.5) × 10^5 M^-1; (Na+ (sodium phosphate; 100 mM NaCl in TRIR samples), phosphate buffer, antiparallel htel(Na), site size 1.1) 1.9(±0.7) × 10^5 M^-1; (Na+ (sodium phosphate; 100 mM NaCl in TRIR samples), phosphate buffer, antiparallel htel(Na), site size 1.5) 2.2(±0.3) × 10^6 M^-1.
